pIC50: −log10 of the molar value. Counter-ions that a name gives are not always drawn. Like-named read-outs stand apart in the source and are kept apart here.
Assays:
[1] = tested on: isolated rat brain stem (electric-stimulated); assay: Biogenic amines released from the rat brain stem by electrostimulation; details: for Minimum dose causing to release dopamine from electric-stimulated brain stem / Minimum dose causing to release serotonin from electric-stimulated brain stem: electrostimulation; for Minimum dose causing to release noradrenaline from electric-stimulated brain stem: electrostimulation 3 Hz, 1 ms, 60 V
[2] = tested on: brain tissues (striatum, substantia nigra, tuberculum olfactorium, locus coeruleus and raphe); assay: Biogenic amines released from brain tissue after s.c. administration; format: in vivo, Wistar rats
Protocol: The method described in Life Sci., 56, 611-620 (1995) was used. After Wistar rats were decapitated, appropriate brain tissues (striatum, substantia nigra, tuberculum olfactorium, locus coeruleus and raphe) were isolated quickly and soaked in oxygenated (95% O2 and 5% CO2) Krebs' solution at 37° C. The composition of Krebs' solution (mmol/L) was as follows: NaCl 111, KCl 4.7, CaCl2 2.5, MgSO4 1.64, NaHCO3 25, KH2PO4 1.2, glucose 12 mg/L ascorbic acid and 20 mg/l EDTA-2Na. The preparations, submerged in one organ bath, were as follows: 1) four pieces of striatum (each halved), 2) four pieces of substantia nigra, 3) four pieces of tuberculum olfactorium, 4) eight pieces of locus coeruleus, 5) eight pieces of raphe. After incubating the tissue for 20 min, the Krebs' solution was exchanged. After the tissue was submerged for 20 min in Krebs' solution containing the compounds of the invention, the biogenic amine released during this period was quantified. The compounds of the invention, the (+)-isomer, the racemic compound and control compound, were respectively dissolved in saline, and subcutaneously administered 30 min before dissection of the brain samples. In the case of noradrenaline and dopamine, samples were purified on microcolumns (BDH Chemicals Ltd.) filled with 60 mg of alumina according to the method described in J. Pharmacol. Exp. Ther., 138, 360-372 (1962). In the case of serotonin, samples were purified on 15 mg Sephadex G-10 microcolumns (Pharmacia). Dopamine, noradrenaline and serotonin were quantified by high performance liquid chromatography (Waters 746 data module) with electrochemical detection (Waters 460 electrochemical detector). Waters Resolve 5μ Spherical C18 3.9×150 mm column was used as separating column and triethylamine-phosphate buffer (pH 5.2) containing 200/mg/L octaine sulfonate sodium and 18 mg/L EDTA-2Na with 6% acetonitrile, was used as mobile phase. The amount of appropriate amine released for 20 min was noted as nmol/g tissue. The differences among means were tested using Student's t-test. Significant level was set at P<0.05.

[3] = tested on: primary cultured hepatocyte; assay: Toxicity screening using primary cultured hepatocyte (LDH release); format: cell-based, rat; details: 24 hr
Protocol: The hepatocytes was prepared from rat liver using collagenase perfusion method and the cell suspension containing 5×10^5 cells/mL were prepared. After cultivation for 24 hr, the medium was changed to the William's Medium E (GIBCO ERL) containing 10 or 100 μmol/L of the compounds of the invention. After cultivation for 24 hr, the activity of lactatedehydrogenase (LDH) released into the medium was measured.

α2 receptor = assay: Receptor affinity, 3H-rauwolscine binding; set-up: species or system rats; details: 0.7 nmol/L 3H-rauwolscine, read-out: Affinity to α2 receptor: concentration showing 50% inhibition between ligand and receptor
Protocol: The receptor solution was prepared as follows. After the rats were decapitated, brain was immediately isolated and weighed. Thereafter, brain samples were homogenized in ten times volumes of ice-cold 0.35 mol/L sucrose (pH 7.4) using glass homogenizer with Teflon pestle, which was revolted by motors. The homogenate was centrifuged at 4° C. at 900×g for 10 min and the supernatant was, furthermore, recentrifuged at 4° C. at 22,000×g for 20 min. The precipitate was suspended with addition of 5 mmol/L phosphate buffer solution (pH 7.4). After the suspension was incubated at 37° C. for 30 min, the suspension was recentrifuged at 4° C. at 20,000×g for 20 min. The precipitate was resuspended in 10 ml of 5 mmol/L phosphate buffer solution (pH 8.0) to be receptor solution.
^3H-prazocin was used as a ligand. 0.25 nmol/L of ^3H-prazocin, the compounds of the invention and the receptor solution, which were respectively prepared in 5 mmol/L phosphate buffer (pH 8), were put in tube and the mixture was incubated at 25° C. for 90 min. In addition, the nonspecific binding was evaluated with binding value of ^3H-prazocin in the presence of 0.1 μmol/L prazocin. The binding assay was carried out as follows. After ^3H-prazocin (binding type: B) bound to receptor, only the binding type of ^3H-prazocin was collected using B/F separator (Brandel, USA) with glass fiber filter (pore size: 0.5 μm Whatman GF/C), and free type of prazocin (free type: F) was removed. Glass-fiber filter, absorbing the binding type of ^3H-prazocin, was washed with ice-cold saline solution and transferred to vial. After 10 ml of scintillation cocktail was put in it, the radioactivity was measured. Affinity of the compounds of the invention to α1 receptor was evaluated from the inhibition rate of binding between α1 receptor and the ligand.
Affinities of the compounds of the invention to receptors of α2, D1, D2, 5-HT1 and 5-HT2 were respectively determined in the same manner, while used 0.7 nmol/L ^3H-rauwolscine, 1.4 nmol/L ^3H-SCH-23390, 2.0 nmol/L spiperone, 2 nmol/L ^3H-5-HT and 0.5 nmol/L ^3H-ketanserin as each ligands. […]

## CCCNC(CCC)Cc1cc2ccccc2o1 (single isomer, unassigned; (-)) [The compound of the invention, (−)-1-(benzofuran-2-yl)-2-propylaminopentane hydrochloride]
[1]
  Minimum dose causing to release dopamine from electric-stimulated brain stem: 0.05 µg/mL
  Minimum dose causing to release noradrenaline from electric-stimulated brain stem: 0.01 µg/mL
  Minimum dose causing to release serotonin from electric-stimulated brain stem: 0.0005 µg/mL
[1]; electrostimulated brain stem
  Noradrenaline, serotonin and dopamine release on electrostimulation (FIG. 1): confirmed to enhance noradrenaline, serotonin and dopamine release
[2]; dose 0.0001 mg/kg s.c.
  Amount of dopamine released, Striatum: 4.7 ± 0.14 nmol/g · tissue. 20 min.
  Amount of dopamine released, Substantia Nigraia: 14.8 ± 0.36 nmol/g · tissue. 20 min.
  Amount of dopamine released, Tuberculum Olfactorium: 7.2 ± 0.23 nmol/g · tissue. 20 min.
  Amount of noradrenaline released, Locus Coeruleus: 6.6 ± 0.10 nmol/g · tissue. 20 min.
  Amount of serotonin released, Raphe: 1.040 ± 0.03 nmol/g · tissue. 20 min.
[2]; dose 0.0005 mg/kg s.c.
  Amount of dopamine released, Striatum: 4.8 ± 0.16 nmol/g · tissue. 20 min.
  Amount of dopamine released, Substantia Nigraia: 13.8 ± 0.23 nmol/g · tissue. 20 min.
  Amount of dopamine released, Tuberculum Olfactorium: 6.7 ± 0.08 nmol/g · tissue. 20 min.
  Amount of noradrenaline released, Locus Coeruleus: 15.4 ± 0.55 nmol/g · tissue. 20 min.
  Amount of serotonin released, Raphe: 0.914 ± 0.03 nmol/g · tissue. 20 min.
[2]; dose 0.0025 mg/kg s.c.
  Amount of dopamine released, Striatum: 5.7 ± 0.19 nmol/g · tissue. 20 min.
  Amount of dopamine released, Substantia Nigraia: 13.1 ± 0.21 nmol/g · tissue. 20 min.
  Amount of dopamine released, Tuberculum Olfactorium: 6.9 ± 0.31 nmol/g · tissue. 20 min.
  Amount of noradrenaline released, Locus Coeruleus: 3.9 ± 0.05 nmol/g · tissue. 20 min.
  Amount of serotonin released, Raphe: 0.421 ± 0.03 nmol/g · tissue. 20 min.
[2]; dose 0.0500 mg/kg s.c.
  Amount of dopamine released, Striatum: 6.5 ± 0.09 nmol/g · tissue. 20 min.
  Amount of dopamine released, Substantia Nigraia: 10.9 ± 0.11 nmol/g · tissue. 20 min.
  Amount of dopamine released, Tuberculum Olfactorium: 7.7 ± 0.19 nmol/g · tissue. 20 min.
  Amount of noradrenaline released, Locus Coeruleus: 4.3 ± 0.25 nmol/g · tissue. 20 min.
  Amount of serotonin released, Raphe: 0.457 ± 0.01 nmol/g · tissue. 20 min.
[3]; 10 μmol/L, hydrochloride
  Percent control of LDH release from primary cultured hepatocyte: 104.94 ± 4.96 Percent control
[3]; 10 μmol/L, listed as the compound of the invention, hydrochloride
  Percent control of LDH release from primary cultured hepatocyte: not increase
[3]; 100 μmol/L, hydrochloride
  Percent control of LDH release from primary cultured hepatocyte: 126.42 ± 8.04 Percent control
[3]; 100 μmol/L, listed as the compound of the invention, hydrochloride
  Percent control of LDH release from primary cultured hepatocyte: slightly increased LDH release
α2 receptor; hydrochloride
  pIC50: 5.51

## CCCNC(CCC)Cc1cc2ccccc2o1.Cl (single isomer, unassigned; (+)) [(+)-Isomer, (+)-1-(benzofuran-2-yl)-2-propylaminopentane hydrochloride]
[1]
  Minimum dose causing to release dopamine from electric-stimulated brain stem: 5 µg/mL
  Minimum dose causing to release noradrenaline from electric-stimulated brain stem: 0.5 µg/mL
  Minimum dose causing to release serotonin from electric-stimulated brain stem: 10 µg/mL
[2]; dose 0.0005 mg/kg s.c.
  Amount of dopamine released, Striatum: 4.4 ± 0.13 nmol/g · tissue. 20 min.
  Amount of dopamine released, Substantia Nigraia: 13.8 ± 0.25 nmol/g · tissue. 20 min.
  Amount of dopamine released, Tuberculum Olfactorium: 6.7 ± 0.06 nmol/g · tissue. 20 min.
  Amount of noradrenaline released, Locus Coeruleus: 10.3 ± 0.35 nmol/g · tissue. 20 min.
  Amount of serotonin released, Raphe: 1.785 ± 0.01 nmol/g · tissue. 20 min.
[2]; dose 0.0025 mg/kg s.c.
  Amount of dopamine released, Striatum: 4.4 ± 0.10 nmol/g · tissue. 20 min.
  Amount of dopamine released, Substantia Nigraia: 8.4 ± 0.14 nmol/g · tissue. 20 min.
  Amount of dopamine released, Tuberculum Olfactorium: 4.8 ± 0.25 nmol/g · tissue. 20 min.
  Amount of noradrenaline released, Locus Coeruleus: 7.4 ± 0.15 nmol/g · tissue. 20 min.
  Amount of serotonin released, Raphe: 1.138 ± 0.05 nmol/g · tissue. 20 min.
[2]; dose 0.0500 mg/kg s.c.
  Amount of dopamine released, Striatum: 4.4 ± 0.17 nmol/g · tissue. 20 min.
  Amount of dopamine released, Substantia Nigraia: 7.1 ± 0.24 nmol/g · tissue. 20 min.
  Amount of dopamine released, Tuberculum Olfactorium: 4.8 ± 0.18 nmol/g · tissue. 20 min.
  Amount of noradrenaline released, Locus Coeruleus: 4.4 ± 0.10 nmol/g · tissue. 20 min.
  Amount of serotonin released, Raphe: 0.642 ± 0.02 nmol/g · tissue. 20 min.
[2]; dose 0.1000 mg/kg s.c.
  Amount of dopamine released, Striatum: 5.8 ± 0.21 nmol/g · tissue. 20 min.
  Amount of dopamine released, Substantia Nigraia: 15.9 ± 0.25 nmol/g · tissue. 20 min.
  Amount of dopamine released, Tuberculum Olfactorium: 7.3 ± 0.20 nmol/g · tissue. 20 min.
  Amount of noradrenaline released, Locus Coeruleus: 5.6 ± 0.25 nmol/g · tissue. 20 min.
  Amount of serotonin released, Raphe: 0.381 ± 0.01 nmol/g · tissue. 20 min.
[3]; 10 μmol/L
  Percent control of LDH release from primary cultured hepatocyte: 124.41 ± 12.54 Percent control
[3]; 100 μmol/L
  Percent control of LDH release from primary cultured hepatocyte: 116.72 ± 6.91 Percent control
α2 receptor; hydrochloride
  pIC50: 5.59

## CCCNC(CCC)Cc1cc2ccccc2o1.Cl (racemic) [Racemic compound, (±)-1-(benzofuran-2-yl)-2-propylaminopentane hydrochloride]
[1]
  Minimum dose causing to release noradrenaline from electric-stimulated brain stem: 5 µg/mL
  Minimum dose causing to release serotonin from electric-stimulated brain stem: 1 µg/mL
[2]; dose 0.0100 mg/kg s.c.
  Amount of dopamine released, Striatum: 5.3 ± 0.14 nmol/g · tissue. 20 min.
  Amount of dopamine released, Substantia Nigraia: 6.6 ± 0.04 nmol/g · tissue. 20 min.
  Amount of dopamine released, Tuberculum Olfactorium: 6.5 ± 0.20 nmol/g · tissue. 20 min.
  Amount of noradrenaline released, Locus Coeruleus: 4.3 ± 0.20 nmol/g · tissue. 20 min.
  Amount of serotonin released, Raphe: 0.457 ± 0.04 nmol/g · tissue. 20 min.
[3]; 10 μmol/L
  Percent control of LDH release from primary cultured hepatocyte: 90.28 ± 2.85 Percent control
[3]; 100 μmol/L
  Percent control of LDH release from primary cultured hepatocyte: 112.10 ± 36.98 Percent control
α2 receptor
  pIC50: 6.00

— patent US6391914B1, “Optically active aminopentane derivatives” (Fujimoto Brothers Co., Ltd., priority 1998, dated 2002)
